One series concerns EDIM rotavirus. Details: species or system mice. The note with it: mouse, in vivo.
The conditions of series [1]: in vivo; cited from earlier work.

Like-named read-outs stand apart in the source and are kept apart here.

For RLSFQLMRPPNMTP [Peptide #6-14], in the series with EDIM rotavirus, the “% Protection” value was determined as 98%.
On the same count and under the same terms, with “HATVLTLRIDSAICESVLADASETMLANV [compound 8]” the figure was 51%; with “QEYAIPVGPVFPPGMNWTDLITNYSPSRED [compound 10]”, 0%; with “FNPVILRPNNVEVEFLLNGQVINTYQARF [compound 4]”, 77%.
On the same count and under the same terms, the result for PDAERFSFPRVINSADGA [compound 2] reads 70%; that for “FSFPRVINSADGATTWYFNPVILRPNNVEV [compound 3]”, 58%.
As to RNFDTIRLSFQLMRPPNMTPAVTAL [Peptide #6], in the series on EDIM rotavirus, the “% Protection” value stood at 85%.
The same measure, in the same setting: with CAINAPANIQQFEHIVQLRRVLTTA [compound 1] the figure was 0%; with “NGQVINTYQARFGTIVARNFDTIRLSFQLM [compound 5]”, 0%.
Same read-out and setting: the result for VLADASETMLANVTSVRQEYAI [compound 9] reads 0%; that for “TDLITNYSPSREDNLQRVFTVASIRSMLVK [compound 11]”, 65%.
Turning to “MTPAVTALFPNAQPFEHHATVGLTLRIDSA [compound 7]”, in the series with EDIM rotavirus, the “% Protection” value is given as 0%.
For the substance QS-21 [reference compound], the “% Protection from rotavirus shedding” value in the series with EDIM rotavirus is recorded as 43%; in the series on EDIM rotavirus (po) it was 71%. The “safety in human clinical trials” value in series [1] is “safe”.

Values taken from patent publication US20030166139A1 (priority 2001, published 2003).
